Reference: patent US10017507B2, “Diaza-benzofluoranthrene compounds” (HARBIN PHARMACEUTICAL GROUP CO., LTD. GENERAL …, priority 2015, dated 2018)

Molecular target: T1, PDE1A (Homo sapiens, UniProt P54750)
T1 construct: purchased SignalChem
Test: In vitro detection of phosphodiesterase (PDE): PDE1A enzyme activity by fluorescence polarization immunoassay
Type: biochemical
Details: human-derived enzyme, cAMP or cGMP substrate; read-out: IC50s for PDE1
Outline: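 Human PDE1A (enzyme solution 3 pM) was preincubated 10 min at RT with compound in 10 mM Tris-HCl pH 7.5, 5 mM MgCl2, 0.01% Brij 35, 1 mM DTT, 1% DMSO, with Ca2+-calmodulin cofactor. Reaction ran 1 h at RT on […] cAMP or cGMP, then 90 min with antibody/tracer. FP at Ex/Em 620/688 was converted to AMP/GMP via standard curve to give IC50.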

Compound	IC50 [µM]
CC[C@@]12C=C(c3nc(C)c(C)o3)n3c4c(c5cc(S(=O)(=O)NCCCOC)ccc53)CCN(CCC1)[C@H]42 [Example 72, (4^1S,13aS)-12-(4,5-dimethyloxazol-2-yl)-13a-ethyl-N-(3-methoxylpropyl)-2,3,4^1,5,6,13a-hexahydro-1H-indolo[3,2,1-de]pyrido[3,2,1-ij][1,5]naphthyridin-9-sulfonamide]	20 to 100
CC[C@@]12C=C(c3nc(C)c(C)o3)n3c4c(c5c(S(=O)(=O)NCCCOC)cccc53)CCN(CCC1)[C@H]42 [Example 75, (4^1S,13aS)-12-(4,5-dimethyloxazol-2-yl)-13a-ethyl-N-(3-methoxylpropyl)-2,3,4^1,5,6,13a-hexahydro-1H-indolo[3,2,1-de]pyrido[3,2,1-ij][1,5]naphthyridin-7-sulfonamide]	20 to 100
CC[C@@]12C=C(c3nc(C)no3)n3c4c(c5ccc(S(=O)(=O)NC)cc53)CCN(CCC1)[C@H]42 [Example 76, (4^1S,13aS)-13a-ethyl-N-methyl-12-(3-methyl-1,2,4-oxadiazol-5-yl)-2,3,4^1,5,6,13a-hexahydro-1H-indolo[3,2,1-de]pyrido[3,2,1-ij][1,5]naphthyridin-9-sulfonamide]	1 to 20
CC[C@@]12C=C(c3nc(C)no3)n3c4c(c5ccc(S(=O)(=O)N(C)C)cc53)CCN(CCC1)[C@H]42 [Example 77, (4^1S,13aS)-13a-ethyl-N,N-dimethyl-12-(3-methyl-1,2,4-oxadiazol-5-yl)-2,3,4^1,5,6,13a-hexahydro-1H-indolo[3,2,1-de]pyrido[3,2,1-ij][1,5]naphthyridin-9-sulfonamide]	20 to 100
CC[C@@]12C=C(c3nc(C)no3)n3c4c(c5cc(S(=O)(=O)N(C)C)ccc53)CCN(CCC1)[C@H]42 [Example 80, (4^1S,13aS)-13a-ethyl-N,N-dimethyl-12-(3-methyl-1,2,4-oxadiazol-5-yl)-2,3,4^1,5,6,13a-hexahydro-1H-indolo[3,2,1-de]pyrido[3,2,1-ij][1,5]naphthyridin-8-sulfonamide]	20 to 100
CC[C@@]12C=C(c3nc(C)no3)n3c4c(c5c(S(=O)(=O)NC)cccc53)CCN(CCC1)[C@H]42 [Example 82, (4^1S,13aS)-13a-ethyl-N-methyl-12-(3-methyl-1,2,4-oxadiazol-5-yl)-2,3,4^1,5,6,13a-hexahydro-1H-indolo[3,2,1-de]pyrido[3,2,1-ij][1,5]naphthyridin-7-sulfonamide]	20 to 100
CC[C@@]12C=C(c3nc(C)no3)n3c4c(c5c(S(=O)(=O)N(C)C)cccc53)CCN(CCC1)[C@H]42 [Example 83, (4^1S,13aS)-13a-ethyl-N,N-dimethyl-12-(3-methyl-1,2,4-oxadiazol-5-yl)-2,3,4^1,5,6,13a-hexahydro-1H-indolo[3,2,1-de]pyrido[3,2,1-ij][1,5]naphthyridin-7-sulfonamide]	20 to 100
(4^1S,13aS)-13a-ethyl-12-(1-methyl-1H-pyrazol-3-yl)-2,3,4^1,5,6,13a-hexahydro-1H-indolo[3,2,1-de]pyrido[3,2,1-ij][1,5]naphthyridine, and (4^1S,13aS)-13a-ethyl-12-(1-methyl-1H-pyrazol-5-yl)-2,3,4^1,5,6,13a-hexahydro-1H-indolo[3,2,1-de]pyrido[3,2,1-ij][1,5]naphthyridine [Example 46]	20 to 100
(4^1S,13aS)-13a-ethyl-N-(3-methoxylpropyl)-12-(3-methyl-1,2,4-oxadiazol-5-yl)-2,3,4,5,6,13a-hexahydro-1H-indolo[3,2,1-de]pyrido[3,2,1-ij][1,5]naphthyridin-7-sulfonamide [Example 84]	> 100
(4^1S,13aS)-13a-ethyl-N-(3-methoxylpropyl)-12-(3-methyl-1,2,4-oxadiazol-5-yl)-2,3,4^1,5,6,13a-hexahydro-1H-indolo[3,2,1-de]pyrido[3,2,1-ij][1,5]naphthyridin-8-sulfonamide [Example 81]	20 to 100
(4^1S,13aS)-13a-ethyl-N-(3-methoxylpropyl)-12-(3-methyl-1,2,4-oxadiazol-5-yl)-2,3,4^1,5,6,13a-hexahydro-1H-indolo[3,2,1-de]pyrido[3,2,1-ij][1,5]naphthyridin-9-sulfonamide [Example 78]	20 to 100

Now from value to compound:

IC50 [µM]	Compound
≤ 1	CC[C@@]12C=C(c3nc(C)c(C)o3)n3c4c(c5ccc(S(=O)(=O)NCCCOC)cc53)CCN(CCC1)[C@H]42 [Example 70, (4^1S,13aS)-12-(4,5-dimethyloxazol-2-yl)-13a-ethyl-N-(3-methoxylpropyl)-2,3,4^1,5,6,13a-hexahydro-1H-indolo[3,2,1-de]pyrido[3,2,1-ij][1,5]naphthyridin-9-sulfonamide]
1 to 20	CC[C@@]12C=C(c3nc(C)c(C)o3)n3c4c(c5cc(S(=O)(=O)N(C)C)ccc53)CCN(CCC1)[C@H]42 [Example 71, (4^1S,13aS)-12-(4,5-dimethyloxazol-2-yl)-13a-ethyl-N,N-dimethyl-2,3,4^1,5,6,13a-hexahydro-1H-indolo[3,2,1-de]pyrido[3,2,1-ij][1,5]naphthyridin-8-sulfonamide]
1 to 20	CC[C@@]12C=C(c3nc(C)c(C)o3)n3c4c(c5c(S(=O)(=O)NC)cccc53)CCN(CCC1)[C@H]42 [Example 73, (4^1S,13aS)-12-(4,5-dimethyloxazol-2-yl)-13a-ethyl-N-methyl-2,3,4^1,5,6,13a-hexahydro-1H-indolo[3,2,1-de]pyrido[3,2,1-ij][1,5]naphthyridin-7-sulfonamide]
1 to 20	CC[C@@]12C=C(c3nc(C)c(C)o3)n3c4c(c5c(S(=O)(=O)N(C)C)cccc53)CCN(CCC1)[C@H]42 [Example 74, (4^1S,13aS)-12-(4,5-dimethyloxazol-2-yl)-13a-ethyl-N,N-dimethyl-2,3,4^1,5,6,13a-hexahydro-1H-indolo[3,2,1-de]pyrido[3,2,1-ij][1,5]naphthyridin-7-sulfonamide]
1 to 20	(4^1S,13aS)-13a-ethyl-N-methyl-12-(3-methyl-1,2,4-oxadiazol-5-yl)-2,3,4^1,5,6,13a-hexahydro-1H-indolo[3,2,1-de]pyrido[3,2,1-ij][1,5]naphthyridin-8-sulfonamide [Example 79]
